# Source: patent publication US20100129310A1, “STABILIZED DESLORATADINE COMPOSITION” (priority 2005, published 2010)
# Experiment: Compatibility of desloratadine with excipient materials, N-formyl desloratadine by HPLC
# Type: physicochemical
# Description: Compatibility of desloratadine with various excipient materials was determined by mixing the drug and an excipient, then subjecting the mixture to direct exposure for 14 days at 40° C. and 75% relative humidity. The analytical results for the presence of N-formyl desloratadine in the samples (as determined by HPLC) were as tabulated below, where ratios are expressed on a weight basis. Desloratadine and polacrilin resin (AMBERLITE IRP64) were dispersed in water and stirred for 2 hours, isolated by filtration, and then dried at 60° C. until the loss on drying was not more than 10% w/w when tested using an infrared moisture balance at 105° C. Where citric acid was used, the quantity of citric acid was selected to adjust the pH of the dispersion to about 6.5. Where lactose was used, the quantity of lactose is 6 times the weight of other materials, and the lactose is dry mixed with the desloratadine or dried desloratadine-resin mixture.
smiles,measurement,setting,value
"Clc1ccc2c(c1)CCc1cccnc1C2=C1CCNCC1 [Desloratadine, 8-chloro-6,11-dihydro-11-(4-piperidinylidene)-5H-benzo[5,6]-cyclohepta[1,2-b]pyridine]",% N-Formyl DCL Initial,Initial,Nil
same,% N-Formyl DCL After exposure,direct exposure for 14 days at 40° C. and 75% relative humidity,Nil
